The record followed here is ChEMBL document CHEMBL5036372, “QuatCy-I2 and MHI-I2 in Photodynamic Therapy” (ACS Med Chem Lett, 2022).

Each structure is given as a SMILES string.

The test system of series [1] is U-87 MG. Briefly: Dark toxicity against human U-87 MG cells incubated for 48 hrs by Alamar blue assay. The format is cell-based, U-87MG ATCC. A general note: The colour change of resazurin is a common sign of viable cells or microbes.
Series [2] in a line: Clearance in CD-1 mouse at 25 nmol, iv measured upto 480 mins by UV-Vis spectrophotometer method. The format is ADME, organism-based. The following applies: in vivo.
Series [3] is described as follows: Biodistribution in bone marrow of mouse implanted with mouse NIT-1 cells at 35 nmol, iv incubated for 4 to 8 hrs by fluorescence imaging analysis. The format is ADME, organism-based. The following applies: in vivo, time 4-8 hrs.
A short description of series [4]: Phototherapeutic index, ratio of IC50 for dark cytotoxicity against human U-87 MG cells to IC50 for light cytotoxicity against human U-87 MG cells preincubated for 6 to 24 hrs followed by light irradiation for 20 min and measured after 24 hrs dark incubation by Alamar blue assay. In kind it is cell-based, U-87MG ATCC. The following applies: time 6-24 hrs, read-out: Ratio IC50.

The nature of series [5]: Drug localization in lungs of CD-1 mouse at 25 nmol, iv measured after 4 hrs by fluorescence imaging analysis. The format is ADME, organism-based, Lung. The following applies: in vivo.
Series [6] can be described thus: Terminal half life in CD-1 mouse at 25 nmol, iv measured upto 480 mins by UV-Vis spectrophotometer method. The following applies: in vivo, read-out: beta t1/2. In kind it is ADME, organism-based.
Series [7] in a line: Biodistribution in lymph node of mouse implanted with mouse NIT-1 cells at 35 nmol, iv incubated for 4 to 8 hrs by fluorescence imaging analysis. The following applies: in vivo, time 4-8 hrs. In kind it is ADME, organism-based.
Series [8] is described as follows: Drug localization in liver of CD-1 mouse at 25 nmol, iv measured after 4 hrs by fluorescence imaging analysis. The following applies: in vivo. In kind it is ADME, organism-based.
Series [9] relates to Mus musculus. Briefly: Antitumor activity against mouse implanted with mouse NIT-1 cells assessed as tumor to background ratio at 35 nmol, iv incubated for 4 hrs by fluorescence imaging analysis. The format is functional.
Series [10] is described as follows: Drug localization in kidney of CD-1 mouse at 25 nmol, iv measured after 4 hrs by fluorescence imaging analysis. The format is ADME, organism-based. The following applies: in vivo.
Series [11] is described as follows: Half life in CD-1 mouse blood at 25 nmol, iv measured upto 480 mins by UV-Vis spectrophotometer method. The format is ADME, organism-based.
A short description of series [12]: Drug localization in duodenum of CD-1 mouse at 25 nmol, iv measured after 4 hrs by fluorescence imaging analysis. In kind it is ADME, organism-based. The following applies: in vivo.
A short description of series [13]: Biodistribution in peripheral tissue of mouse implanted with mouse NIT-1 cells at 35 nmol, iv incubated for 4 to 8 hrs by fluorescence imaging analysis. In kind it is ADME, organism-based. The following applies: in vivo, time 4-8 hrs.

In series [1], `CC1(C)C(/C=C/C2=C(Cl)C(=C/C=C3/N(CCCCCC(=O)O)c4ccccc4C3(C)C)/CCC2)=[N+](CCCCCC(=O)O)c2ccccc21` had an IC50 of 19.2 µM.
Take `CC1(C)C(/C=C/C2=C(Cl)C(=C/C=C3/N(CCCCCC(=O)O)c4ccc(I)cc4C3(C)C)/C[N+](C)(C)C2)=[N+](CCCCCC(=O)O)c2ccc(I)cc21`: the clearance in series [2] stood at 5 mL/min/kg. Besides, the Drug uptake result in [3] is listed as “Active”; in series [5] it was “Not Active”; in series [7], “Active”; in [8], “Active”; in series [10], “Active”. Besides, the selectivity ratio at 24 h in series [4] amounted to 72.8. The half-life in series [6] came out at 0.917 h. Moreover, half-maximal inhibition in series [1] (IC50) required 62.4 µM. In addition, in series [9], the Ratio was 8.98.
For the molecule `CC1(C)C(/C=C/C2=C(Cl)C(=C/C=C3/N(CCCCCC(=O)O)c4ccccc4C3(C)C)/C[N+](C)(C)C2)=[N+](CCCCCC(=O)O)c2ccccc21`, the half-maximal inhibitory concentration (IC50) in series [1] is more than 100 µM.
`CC1(C)C(/C=C/C2=C(Cl)C(=C/C=C3/N(CCCCCC(=O)O)c4ccc(I)cc4C3(C)C)/CCC2)=[N+](CCCCCC(=O)O)c2ccc(I)cc21`: the half-life in series [11] turned out to be 1.93 h. Moreover, the clearance in series [2] stood at 0.2 mL/min/kg. The selectivity ratio at 24 h in series [4] turned out to be 2.56. Further, the Drug uptake entry in series [12], in series [13] and in series [8] was “Active” throughout. The same molecule returned a 50% inhibitory concentration (IC50) in series [1] of 11.4 µM. Also, the Ratio in series [9] is recorded as 6.5.

The IC50 is the concentration at which inhibition is half-maximal. Low readings indicate inhibition by little substance, high ones a need for much substance. For orientation: clearance means the volume of plasma or blood freed of the substance per unit of time. A lower clearance goes with a low capacity for elimination.
